Data published in ChEMBL document CHEMBL1201862, “PubChem BioAssay data set” (2004).
Structures can show the parent of a compound that is named as a salt.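 Five compound concentrations were applied to cells in 96-well plates for 48 hours; endpoints were derived by simple linear interpolation of the resulting dose-response curve. GI50 = concentration required for 50% inhibition of growth.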 The source made the active and inactive calls. Rule as the data show it: active = GI50 up to about 1.1 µM and inactive = higher.

Experiments:
Assay in all cases: DTP human tumour cell line panel, 48 h
[1] = tested on: CAKI-1
[2] = tested on: CCRF-CEM
[3] = tested on: DMS-273
[4] = tested on: HCT-116
[5] = tested on: HCT-15
[6] = tested on: HOP-62
[7] = tested on: HT-29
[8] = tested on: IGROV-1
[9] = tested on: K562
[10] = tested on: M14
[11] = tested on: MOLT-4
[12] = tested on: NCI-H226
[13] = tested on: OVCAR-5
[14] = tested on: OVCAR-8
[15] = tested on: SF-268
[16] = tested on: SN12C
[17] = tested on: SR
[18] = tested on: BT-549
[19] = tested on: MDA-MB-231
[20] = tested on: MDA-N

CCC(O)(c1ccc(OC)cc1)C(c1ccc(OCc2ccccc2)cc1)c1ccc(OCc2ccccc2)cc1 (stereo not given)
GI50 [1]: > 100 µM (inactive) | GI50 [2]: > 100 µM (inactive) | GI50 [3]: > 100 µM (inactive) | GI50 [4]: > 100 µM (inactive) | GI50 [5]: > 100 µM | GI50 [6]: > 100 µM (inactive) | GI50 [7]: > 100 µM (inactive) | GI50 [8]: > 100 µM (inactive) | GI50 [9]: > 100 µM (inactive) | GI50 [10]: > 100 µM (inactive) | GI50 [11]: > 100 µM (inactive) | GI50 [12]: > 100 µM (inactive) | GI50 [13]: > 100 µM (inactive) | GI50 [14]: > 100 µM (inactive) | GI50 [15]: > 100 µM (inactive) | GI50 [16]: 99.5 µM (inactive) | GI50 [17]: > 100 µM (inactive)

O=C1c2ccccc2C(=O)c2sc(Nc3ccc(Cl)cc3)nc21
GI50 [1]: 1.99 µM (inactive) | GI50 [2]: 1.32 µM (inactive) | GI50 [3]: 1.97 µM (inactive) | GI50 [4]: 1.64 µM (inactive) | GI50 [5]: 1.8 µM | GI50 [6]: 4.68 µM (inactive) | GI50 [7]: 4.15 µM (inactive) | GI50 [8]: 2.44 µM (inactive) | GI50 [9]: 1.96 µM (inactive) | GI50 [10]: 2.14 µM (inactive) | GI50 [11]: 0.762 µM (active) | GI50 [12]: 7.53 µM (inactive) | GI50 [13]: 5.13 µM (inactive) | GI50 [14]: 1.75 µM (inactive) | GI50 [15]: 2.4 µM (inactive) | GI50 [16]: 1.85 µM (inactive) | GI50 [17]: 1.86 µM (inactive)

CC1=Nc2c(ccc3c2C(=O)c2ccccc2C3=O)NC(c2ccncc2)C1 (stereo not given)
GI50 [1]: 7.98 µM (inactive) | GI50 [2]: 0.515 µM (active) | GI50 [3]: > 10 µM (inactive) | GI50 [4]: 41.5 µM (inactive) | GI50 [5]: 9.93 µM | GI50 [6]: 35.1 µM (inactive) | GI50 [7]: > 10 µM (inactive) | GI50 [8]: 4.94 µM (inactive) | GI50 [9]: > 100 µM (inactive) | GI50 [10]: > 10 µM (inactive) | GI50 [11]: 3.73 µM (inactive) | GI50 [12]: > 10 µM (inactive) | GI50 [13]: 95.1 µM (inactive) | GI50 [14]: 8.55 µM (inactive) | GI50 [15]: > 10 µM (inactive) | GI50 [16]: 57.4 µM (inactive) | GI50 [17]: 0.135 µM (active)

Cc1ccccc1NC(=O)C(=O)CC(=O)c1sc(-n2nc(-c3ccccc3)cc2-c2ccccc2)nc1C
GI50 [1]: > 100 µM (inactive) | GI50 [2]: > 100 µM (inactive) | GI50 [3]: > 100 µM (inactive) | GI50 [4]: > 100 µM (inactive) | GI50 [5]: > 100 µM | GI50 [6]: > 100 µM (inactive) | GI50 [7]: > 100 µM (inactive) | GI50 [8]: > 100 µM (inactive) | GI50 [9]: > 100 µM (inactive) | GI50 [10]: > 100 µM (inactive) | GI50 [11]: > 100 µM (inactive) | GI50 [12]: > 100 µM (inactive) | GI50 [13]: > 100 µM (inactive) | GI50 [14]: > 100 µM (inactive) | GI50 [15]: > 100 µM (inactive) | GI50 [16]: > 100 µM (inactive) | GI50 [17]: > 100 µM (inactive)

C=CCC1(CN(C)C)CC/C(=C\c2ccc3c(c2)OCO3)C1=O (stereo not given)
GI50 [1]: 68.5 µM (inactive) | GI50 [2]: 29.2 µM (inactive) | GI50 [3]: 47.6 µM (inactive) | GI50 [4]: 43.6 µM (inactive) | GI50 [5]: 39.4 µM | GI50 [6]: > 100 µM (inactive) | GI50 [7]: 36 µM (inactive) | GI50 [8]: 60.5 µM (inactive) | GI50 [9]: 32.7 µM (inactive) | GI50 [10]: 56.9 µM (inactive) | GI50 [11]: 27.3 µM (inactive) | GI50 [12]: > 100 µM (inactive) | GI50 [13]: > 100 µM (inactive) | GI50 [14]: 48.4 µM (inactive) | GI50 [15]: 91 µM (inactive) | GI50 [16]: > 100 µM (inactive) | GI50 [17]: 41 µM (inactive)

COC1C=COC2(C)Oc3c(C)c(O)c4c(O)c(c(/C=N/N5CCN(N)CC5)c(O)c4c3C2=O)NC(=O)C(C)=CC=CC(C)C(O)C(C)C(O)C(C)C(OC(C)=O)C1C (stereo not given)
GI50 [1]: > 100 µM (inactive) | GI50 [2]: 20.1 µM (inactive) | GI50 [3]: > 100 µM (inactive) | GI50 [4]: 30.7 µM (inactive) | GI50 [5]: 80.7 µM | GI50 [6]: > 100 µM (inactive) | GI50 [7]: 38.4 µM (inactive) | GI50 [8]: > 100 µM (inactive) | GI50 [9]: 44.4 µM (inactive) | GI50 [10]: > 100 µM (inactive) | GI50 [11]: 39 µM (inactive) | GI50 [12]: > 100 µM (inactive) | GI50 [13]: > 100 µM (inactive) | GI50 [14]: 88.3 µM (inactive) | GI50 [15]: 62.5 µM (inactive) | GI50 [16]: > 100 µM (inactive) | GI50 [17]: 34.1 µM (inactive)

OCC(O)COc1c(Cl)cc(Cl)cc1Cl (stereo not given)
GI50 [1]: > 100 µM (inactive) | GI50 [2]: > 41.8 µM (inactive) | GI50 [3]: > 100 µM (inactive) | GI50 [4]: > 74.3 µM (inactive) | GI50 [5]: > 100 µM | GI50 [6]: > 100 µM (inactive) | GI50 [7]: > 100 µM (inactive) | GI50 [8]: > 100 µM (inactive) | GI50 [9]: > 46.6 µM (inactive) | GI50 [10]: > 100 µM (inactive) | GI50 [11]: > 31.6 µM (inactive) | GI50 [12]: > 100 µM (inactive) | GI50 [13]: > 100 µM (inactive) | GI50 [14]: > 100 µM (inactive) | GI50 [15]: > 100 µM (inactive) | GI50 [16]: > 100 µM (inactive) | GI50 [17]: 61.7 µM (inactive)

COc1cc2c[n+](C)c3c4cc(OC)c(OC(C)C)cc4ccc3c2cc1OC
GI50 [1]: > 100 µM (inactive) | GI50 [2]: 56.2 µM (inactive) | GI50 [3]: 27.2 µM (inactive) | GI50 [4]: > 100 µM (inactive) | GI50 [5]: > 100 µM | GI50 [6]: > 100 µM (inactive) | GI50 [7]: 49.3 µM (inactive) | GI50 [8]: 45.1 µM (inactive) | GI50 [9]: 32.3 µM (inactive) | GI50 [10]: 84.9 µM (inactive) | GI50 [11]: 50.5 µM (inactive) | GI50 [12]: 98.4 µM (inactive) | GI50 [13]: 69.7 µM (inactive) | GI50 [14]: 35.4 µM (inactive) | GI50 [15]: 47 µM (inactive) | GI50 [16]: 37.8 µM (inactive) | GI50 [17]: 43.2 µM (inactive)

CC1(C)COC(c2ccc(C(F)(F)F)cc2C(O)c2ccc3ccccc3c2)=N1 (stereo not given)
GI50 [1]: 94.6 µM (inactive) | GI50 [2]: > 10 µM (inactive) | GI50 [3]: > 10 µM (inactive) | GI50 [4]: > 10 µM (inactive) | GI50 [5]: > 10 µM | GI50 [6]: > 10 µM (inactive) | GI50 [7]: > 10 µM (inactive) | GI50 [8]: > 10 µM (inactive) | GI50 [9]: > 10 µM (inactive) | GI50 [10]: > 10 µM (inactive) | GI50 [11]: > 10 µM (inactive) | GI50 [12]: 51.3 µM (inactive) | GI50 [13]: > 10 µM (inactive) | GI50 [14]: > 10 µM (inactive) | GI50 [15]: 82 µM (inactive) | GI50 [16]: > 10 µM (inactive) | GI50 [17]: > 10 µM (inactive)

C[n+]1c2ccccc2c(CNC(CCC(N)=O)C(=O)O)c2ccccc21 (stereo not given)
GI50 [18]: 4.59 µM (inactive) | GI50 [1]: 2.36 µM (inactive) | GI50 [2]: 0.366 µM (active) | GI50 [3]: 1.21 µM (inactive) | GI50 [4]: 0.302 µM (active) | GI50 [5]: 1.24 µM | GI50 [6]: 4.94 µM (inactive) | GI50 [7]: 1.22 µM (inactive) | GI50 [8]: 4.15 µM (inactive) | GI50 [9]: 0.34 µM (active) | GI50 [10]: 3.41 µM (inactive) | GI50 [19]: 5.36 µM (inactive) | GI50 [20]: 2.87 µM (inactive) | GI50 [11]: 0.998 µM (active) | GI50 [12]: 8.3 µM (inactive) | GI50 [13]: 9.1 µM (inactive) | GI50 [14]: 3.39 µM (inactive) | GI50 [15]: 1.77 µM (inactive) | GI50 [16]: 2.64 µM (inactive) | GI50 [17]: 1.07 µM (active)

COc1ccc(/C=C2\CCC(CCN(C)C)(C3=CCCC3)C2=O)cc1 (stereo not given)
GI50 [1]: 10.7 µM (inactive) | GI50 [2]: 17.1 µM (inactive) | GI50 [3]: 17.1 µM (inactive) | GI50 [4]: 15.1 µM (inactive) | GI50 [5]: 22.3 µM | GI50 [6]: 18 µM (inactive) | GI50 [7]: 15.5 µM (inactive) | GI50 [8]: 16.7 µM (inactive) | GI50 [9]: 15.7 µM (inactive) | GI50 [10]: 15.1 µM (inactive) | GI50 [11]: 23.9 µM (inactive) | GI50 [12]: 20.6 µM (inactive) | GI50 [13]: 21.5 µM (inactive) | GI50 [14]: 16.8 µM (inactive) | GI50 [15]: 18.2 µM (inactive) | GI50 [16]: 19.9 µM (inactive) | GI50 [17]: 27.2 µM (inactive)

CC(=O)N(O)CCCCCNC(=O)CCC(=O)N(O)CCCCCNC(=O)CCC(=O)N(O)CCCCCN [DEFEROXAMINE HYDROCHLORIDE]
GI50 [18]: 57.5 µM (inactive) | GI50 [1]: 42.4 µM (inactive) | GI50 [2]: 4.48 µM (inactive) | GI50 [3]: 28.2 µM (inactive) | GI50 [4]: 14 µM (inactive) | GI50 [5]: 16.8 µM | GI50 [6]: 18.4 µM (inactive) | GI50 [7]: 36.6 µM (inactive) | GI50 [8]: 65.6 µM (inactive) | GI50 [9]: 57.5 µM (inactive) | GI50 [10]: 19 µM (inactive) | GI50 [19]: > 100 µM (inactive) | GI50 [20]: 53.2 µM (inactive) | GI50 [11]: 11.2 µM (inactive) | GI50 [12]: 26.9 µM (inactive) | GI50 [13]: 12.5 µM (inactive) | GI50 [14]: 38.4 µM (inactive) | GI50 [15]: 24.9 µM (inactive) | GI50 [16]: 25.9 µM (inactive) | GI50 [17]: 8.87 µM (inactive)
